# Test results from US10377741B2, “Substituted heteroaryl aldehyde compounds and methods for their use in increasing tissue oxygenation” (Global Blood Therapeutics, Inc., priority 2011, dated 2019).
# Tests used:
# [1] = biological target: T1, purified Hemoglobin S (HbS) (Homo sapiens, UniProt P68871+P69905, E7V); assay: Modulation of hemoglobin oxygen affinity: oxygen equilibrium curves (HEMOX) in purified HbS; format: biochemical, human (homozygous sickle cell patients); conditions: compound at 30 μM; 25 μM purified HbS, 45 min at 37° C.
# T1 construct: HbS was purified by a modified procedure; from tissue; host or cells: blood of homozygous sickle cell patients (CHORI); for the polymerization assay purified by the CRO VIRUSYS
# How it was run: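 HbS from homozygous sickle cell patient blood, 25 μM in HEMOX buffer pH 7.4, incubated 45 min at 37° C with compound (30 μM unless noted). Air-saturated then deoxygenated with N2; p50 from Hill fit; delta p50% = (control p50 − treated p50)/control p50 × 100.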
# [2] = biological target: T2, HbS/A (Homo sapiens, UniProt P68871+P69905, E7V); assay: R/T assay (relaxed-to-tense transition under deoxygenated conditions); format: biochemical, human (homozygous sickle cell patients); conditions: compound at 9 μM; 3 μM HbS/A; % R remaining vs no treatment
# T2 construct: A mixture of HbS/A was purified from blood; from tissue; host or cells: blood of homozygous sickle cell patients (CHORI)
# Description: A relaxed-to-tense transition assay (“R/T assay”) was used to determine the ability of substituted benzaldehyde compounds to maintain the high-oxygen affinity relaxed (R) state of hemoglobin under deoxygenated conditions. This ability can be expressed as a “delta R” value (i.e., the change in the time-period of the R state after hemoglobin is treated with a compound, as compared to the period without treatment with the compound). Delta R is the % R to remaining after the compounds treatment compared with no treatment (e.g. if R % without treatment is 8% while with treatment with a target compound is 48% R at 30 μM, then % R is 40% for that compound.
# A mixture of HbS/A was purified from blood obtained from homozygous sickle cell patients though the Hemoglobinopathy Center at Children's Hospital Oakland Research Institute (CHORI) with Institutional Review Board approval. HbS/A (at a final concentration of 3 μM) was incubated for 1 hr at 37° C. in presence or absence of compounds in […] potassium phosphate buffer, pH=7.4 and 30 μM 2, 3 diphosphoglycerate (DPG) in 96 well plates in a final volume of 160 μl. Compounds were added at different concentrations (3 μM to 100 μM final concentrations). Plates were covered with a Mylar film. After incubation was completed the Mylar cover was removed and the plates were placed in a Spectrostar Nano plate reader previously heated at 37° C. Five minutes later, N2 (flow rate=20 L/min) was flowed through the spectrophotometer. Spectroscopic measurements (300 nm to 700 nm) were taken every 5 min for 2 hours. Data analysis was performed by using linear regression from the data retrieved for all wavelengths.
# Table 4 below lists the delta R values where + indicates a delta R of between 0 and 30, ++ indicates a delta R of between 30 and 50, and +++ indicates a delta R of 50 or greater. Unless noted otherwise, the compounds in Table 2 were tested at 30 μM.
# [3] = test system: whole blood; assay: Whole blood assay: oxygen equilibrium curves of whole blood; format: cell-based, human (homozygous sickle cell patients); conditions: compound at 1000 μM; hematocrit 20%, 1 hour at 37° C.
# Description: Oxygen Equilibrium Curves (OEC) of whole blood before and after treatment with different concentrations of substituted benzaldehyde compounds were performed as follows using a HEMOX analyzer (TCS Scientific, New Hope, Pa.). Blood samples from homozygous sickle cell patients were obtained though the Hemoglobinopathy Center at Children's Hospital Oakland Research Institute (CHORI) with Institutional Review Board approval. The hematocrit was adjusted to 20% using autologous plasma and the blood samples were incubated for 1 hour at 37° C. in absence or presence of compounds. 100 μl of these samples were added to 5 mL of Hemox buffer (30 mM TES, 130 mM NaCl, 5 mM KCl, pH=7.4) at 37° C. and then transferred to the Hemox sample chamber. The samples were saturated with oxygen by flushing with compressed air for 10 minutes. The samples were then flushed with pure nitrogen and the respective absorbances of oxy- and deoxy-Hb are recorded as a function of the solution pO2. The oxygen equilibrium data were then fitted to the Hill Model to obtain values for p50. The deoxygenation curves for both whole blood alone (control) and whole blood in the presence of the compound were collected with the TCS software.
# Table 5 below lists the delta p50% values where + indicates a delta p50% of between 0 and 29, ++ indicates a delta p50% of between 30 and 50, and +++ indicates a delta p50% of 50 or greater. Unless noted otherwise, the compounds in Table 2 were tested at 1000 μM.
SMILES,delta p50% [1],delta R [2],delta p50% Values for Whole Blood Assay [3]
"COc1cc(C=O)c(OCc2cncc(C)c2)cn1 [Compound 43, 2-methoxy-5-((5-methylpyridin-3-yl)methoxy)isonicotinaldehyde]",++ (a delta p50% of between 30 and 50),+ (a delta R of between 0 and 30),–
"COc1cc(C=O)c(OCc2nccc3ccccc23)cn1 [Compound 44, 5-(isoquinolin-1-ylmethoxy)-2-methoxyisonicotinaldehyde]",+++ (a delta p50% of 50 or greater),–,+ (a delta p50% of between 0 and 29)
"COc1cc(C=O)c(OCc2ccc3ccccc3n2)cn1 [Compound 45, 2-methoxy-5-(quinolin-2-ylmethoxy)isonicotinaldehyde]",+++ (a delta p50% of 50 or greater),++ (a delta R of between 30 and 50),–
"COc1cc(C=O)c(OCc2ccncc2)cn1 [Compound 46, 2-methoxy-5-(pyridin-4-ylmethoxy)isonicotinaldehyde]",++ (a delta p50% of between 30 and 50),+ (a delta R of between 0 and 30),–
"COC(=O)c1cccn2cc(COc3cnc(OC)cc3C=O)nc12 [Compound 53, methyl 2-((4-formyl-6-methoxypyridin-3-yloxy)methyl)imidazo[1,2-a]pyridine-8-carboxylate]",++ (a delta p50% of between 30 and 50),+ (a delta R of between 0 and 30),–
"COc1cc(C=O)c(OCc2cccn3c(C)nnc23)cn1 [Compound 58, 2-methoxy-5-((3-methyl-[1,2,4]triazolo[4,3-a]pyridin-8-yl)methoxy)isonicotinaldehyde]",++ (a delta p50% of between 30 and 50),+ (a delta R of between 0 and 30),+ (a delta p50% of between 0 and 29)
"COc1cc(C=O)c(OCc2cccnc2Br)cn1 [Compound 63, 5-((2-bromopyridin-3-yl)methoxy)-2-methoxyisonicotinaldehyde]",+++ (a delta p50% of 50 or greater),++ (a delta R of between 30 and 50),–
"COc1cc(C=O)c(OCc2cccnc2-c2ccn[nH]2)cn1 [Compound 65, 5-((2-(1H-pyrazol-5-yl)pyridin-3-yl)methoxy)-2-methoxyisonicotinaldehyde]",++ (a delta p50% of between 30 and 50),+ (a delta R of between 0 and 30),+ (a delta p50% of between 0 and 29)
"COc1cc(C=O)c(OCc2cccnc2-c2ccnn2COCC[Si](C)(C)C)cn1 [Compound 193, 2-methoxy-5-((2-(1-((2-(trimethylsilyl)ethoxy)methyl)-1H-pyrazol-5-yl)pyridin-3-yl)methoxy)isonicotinaldehyde]",++ (a delta p50% of between 30 and 50),+ (a delta R of between 0 and 30),–
"COCCOc1cc(C=O)c(OCc2cccnc2-c2ccnn2CCC(F)(F)F)cn1 [Compound 209, 2-(2-methoxyethoxy)-5-((2-(1-(3,3,3-trifluoropropyl)-1H-pyrazol-5-yl)pyridin-3-yl)methoxy)isonicotinaldehyde]",–,–,+ (a delta p50% of between 0 and 29)

# The next lines start with results.
delta p50% [1],delta R [2],SMILES,delta p50% Values for Whole Blood Assay [3]
++ (a delta p50% of between 30 and 50),++ (a delta R of between 30 and 50),"COc1cc(C=O)c(OCc2cncc(Br)c2)cn1 [Compound 66, 5-((5-bromopyridin-3-yl)methoxy)-2-methoxyisonicotinaldehyde]",–
++ (a delta p50% of between 30 and 50),–,"COc1cc(C=O)c(OCc2cncc(-c3ccnn3C)c2)cn1 [Compound 74, 2-methoxy-5-((5-(1-methyl-1H-pyrazol-5-yl)pyridin-3-yl)methoxy)isonicotinaldehyde]",++ (a delta p50% of between 30 and 50)
++ (a delta p50% of between 30 and 50),++ (a delta R of between 30 and 50),"COc1cc(C=O)c(OCc2cncc(C(=O)O)c2)cn1 [Compound 79, 5-((4-formyl-6-methoxypyridin-3-yloxy)methyl)nicotinic acid]",+ (a delta p50% of between 0 and 29)
++ (a delta p50% of between 30 and 50),+++ (a delta R of 50 or greater),"COc1cc(C=O)c(OCc2cnc3ccccc3c2)cn1 [Compound 80, 2-methoxy-5-(quinolin-3-ylmethoxy)isonicotinaldehyde]",+ (a delta p50% of between 0 and 29)
++ (a delta p50% of between 30 and 50),++ (a delta R of between 30 and 50),"COc1cc(C=O)c(OCc2cccc3c2cnn3C)cn1 [Compound 84, 2-methoxy-5-((1-methyl-1H-indazol-4-yl)methoxy)isonicotinaldehyde]",–
++ (a delta p50% of between 30 and 50),+ (a delta R of between 0 and 30),"Cc1ccc(OCc2cccc3c2cnn3C(=O)OC(C)(C)C)c(C=O)n1 [Compound 86, tert-butyl 4-((2-formyl-6-methylpyridin-3-yloxy)methyl)-1H-indazole-1-carboxylate]",–
++ (a delta p50% of between 30 and 50),+++ (a delta R of 50 or greater),"Cc1ccc(OCc2ccc3cnn(C)c3c2)c(C=O)n1 [Compound 91, 6-methyl-3-((1-methyl-1H-indazol-6-yl)methoxy)picolinaldehyde]",–
++ (a delta p50% of between 30 and 50),+ (a delta R of between 0 and 30),"Cc1ccc(OCc2cccc3cnn(C)c23)c(C=O)n1 [Compound 92, 6-methyl-3-((1-methyl-1H-indazol-7-yl)methoxy)picolinaldehyde]",+ (a delta p50% of between 0 and 29)
++ (a delta p50% of between 30 and 50),–,"Cc1ccc(OCc2ccnc3cccnc23)c(C=O)n1 [Compound 106, 3-((1,5-naphthyridin-4-yl)methoxy)-6-methylpicolinaldehyde]",+ (a delta p50% of between 0 and 29)
++ (a delta p50% of between 30 and 50),++ (a delta R of between 30 and 50),"Cc1ccc(OCc2cccc3ncccc23)c(C=O)n1 [Compound 119, 6-methyl-3-(quinolin-5-ylmethoxy)picolinaldehyde]",–
++ (a delta p50% of between 30 and 50),+ (a delta R of between 0 and 30),"COc1cc(C=O)c(OCc2cccnc2-n2cccn2)cn1 [Compound 134, 5-((2-(1H-pyrazol-1-yl)pyridin-3-yl)methoxy)-2-methoxyisonicotinaldehyde]",–
++ (a delta p50% of between 30 and 50),+ (a delta R of between 0 and 30),"COc1cc(C=O)c(OCc2cccnc2-c2cccnc2)cn1 [Compound 161, 5-([2,3′-bipyridin]-3-ylmethoxy)-2-methoxyisonicotinaldehyde]",–
++ (a delta p50% of between 30 and 50),+ (a delta R of between 0 and 30),"COCCn1nccc1-c1ncccc1COc1cnc(OC)cc1C=O [Compound 172, 2-methoxy-5-((2-(1-(2-methoxyethyl)-1H-pyrazol-5-yl)pyridin-3-yl)methoxy)isonicotinaldehyde]",–
